For 10 compounds, IC50 results are on record in US20210198277A1, “AMINE-SUBSTITUTED ARYL OR HETEROARYL COMPOUNDS” (Epizyme, Inc., priority 2016, published 2021).

Like-named read-outs stand apart in the source and are kept apart here.

As usually defined, the IC50 is the concentration at which inhibition is half-maximal.

The target in one assay is T1, human EHMT2 913-1193 (Homo sapiens, UniProt Q96KQ7).
T1 construct: recombinant purified human EHMT2 913-1193, Viva; purchased Viva
T1 sequence (Q96KQ7 913-1193): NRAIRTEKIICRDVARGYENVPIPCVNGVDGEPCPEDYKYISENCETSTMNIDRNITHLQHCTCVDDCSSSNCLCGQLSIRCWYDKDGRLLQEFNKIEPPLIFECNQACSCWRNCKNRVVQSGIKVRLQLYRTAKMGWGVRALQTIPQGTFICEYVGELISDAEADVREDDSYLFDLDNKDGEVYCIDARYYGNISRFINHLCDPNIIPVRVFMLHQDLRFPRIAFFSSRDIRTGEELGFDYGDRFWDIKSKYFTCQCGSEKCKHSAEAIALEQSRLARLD
Put plainly: EHMT2 enzyme assay on histone peptide substrate (EHMT2 PEP). Format: biochemical. The method in brief:
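Inhibition is measured as reduced tritium incorporation into a biotinylated histone peptide from ^3H-SAM. The enzyme (0.031 nM) sees compound for 30 minutes before a 60-minute room-temperature reaction, which unlabeled SAM quenches prior to streptavidin Flashplate capture.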

Another assay has as its target T2, EHMT1 (Homo sapiens, UniProt Q9H9B1).
T2 sequence (Q9H9B1 1-1298): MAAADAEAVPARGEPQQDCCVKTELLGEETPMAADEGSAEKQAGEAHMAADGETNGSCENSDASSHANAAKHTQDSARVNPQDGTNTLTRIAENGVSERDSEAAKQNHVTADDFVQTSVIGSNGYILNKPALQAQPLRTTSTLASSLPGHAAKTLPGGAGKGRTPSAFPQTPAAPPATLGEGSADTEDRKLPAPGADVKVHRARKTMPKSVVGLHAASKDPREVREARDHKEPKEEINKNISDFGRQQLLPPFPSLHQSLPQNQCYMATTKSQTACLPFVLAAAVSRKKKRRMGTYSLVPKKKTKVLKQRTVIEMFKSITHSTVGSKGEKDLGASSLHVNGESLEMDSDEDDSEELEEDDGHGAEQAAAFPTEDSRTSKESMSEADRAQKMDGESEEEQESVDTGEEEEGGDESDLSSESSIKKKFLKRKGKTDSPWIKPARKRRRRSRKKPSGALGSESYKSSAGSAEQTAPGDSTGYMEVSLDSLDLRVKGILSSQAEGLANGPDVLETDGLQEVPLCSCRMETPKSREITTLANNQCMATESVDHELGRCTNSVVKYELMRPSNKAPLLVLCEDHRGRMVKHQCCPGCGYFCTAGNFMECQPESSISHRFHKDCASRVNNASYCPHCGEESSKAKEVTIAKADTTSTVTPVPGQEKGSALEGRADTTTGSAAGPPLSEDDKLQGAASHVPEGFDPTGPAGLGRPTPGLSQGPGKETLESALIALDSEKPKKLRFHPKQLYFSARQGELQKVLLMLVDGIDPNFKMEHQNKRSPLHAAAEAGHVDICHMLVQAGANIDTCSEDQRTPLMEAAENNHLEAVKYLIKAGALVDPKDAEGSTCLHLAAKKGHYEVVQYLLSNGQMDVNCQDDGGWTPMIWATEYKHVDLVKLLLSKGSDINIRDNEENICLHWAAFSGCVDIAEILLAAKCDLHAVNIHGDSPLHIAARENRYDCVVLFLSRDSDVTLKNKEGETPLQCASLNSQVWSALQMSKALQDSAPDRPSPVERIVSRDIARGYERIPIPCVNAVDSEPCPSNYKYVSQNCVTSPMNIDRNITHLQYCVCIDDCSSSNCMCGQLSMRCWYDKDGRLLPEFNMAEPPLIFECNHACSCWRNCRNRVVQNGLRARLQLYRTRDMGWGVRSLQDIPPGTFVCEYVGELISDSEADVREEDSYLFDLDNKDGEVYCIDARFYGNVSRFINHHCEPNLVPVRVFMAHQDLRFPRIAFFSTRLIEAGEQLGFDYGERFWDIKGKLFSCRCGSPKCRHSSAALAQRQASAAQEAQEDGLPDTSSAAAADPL
Put plainly: EHMT1 enzyme assay on peptide substrate (EHMT1 PEP). The format is biochemical.

[1] abbreviates: Table VII, read-out: EHMT2 PEP IC50.
[2] abbreviates: Table VII, read-out: EHMT1 PEP IC50.
Where [3] appears, read: recombinant human EHMT2 913-1193, histone H3 1-15 peptide, balanced conditions, read-out: EHMT2 PEP (IC50 μM).

Consider `CNc1cc(C)nc(Nc2ccc(C)c(C(=O)NCc3ccon3)c2)n1` [Compound 1114], for which the IC50 on human EHMT2 913-1193 (setting [1]) and on EHMT1 (setting [2]) was over 10 µM in each case.

`CNc1cc(C)nc(Nc2cc(OC[C@@H]3CCN(C)C3)c(OC)cn2)c1` [Compound 475]: the IC50 at human EHMT2 913-1193 (setting [3]) is 0.1 to 1 µM; at EHMT1 (read-out: EHMT1 PEP (IC50 μM)), under 0.1 µM.

Regarding `CNc1cc(C)nc(Nc2ccc(OC)c(CNCCNC3CCC3)c2)n1` [Compound 1109], the IC50 on human EHMT2 913-1193 (setting [1]) lay within 1 to 10 µM; at EHMT1 (setting [2]), 0.1 to 1 µM.

As to `CNc1cc(C)nc(Nc2ccc(OC)c(OC[C@H]3CCCN(C4CC4)C3)c2)n1` [Compound 517b], the IC50 at human EHMT2 913-1193 (setting [3]) and on EHMT1 (read-out: EHMT1 PEP (IC50 μM)) was 0.1 to 1 µM each time.

Turning to `CCc1ccc(Nc2nc(C)cc(NC)n2)cc1OCCCN1CCCC1` [Compound 497], the IC50 at human EHMT2 913-1193 (setting [3]) and on EHMT1 (read-out: EHMT1 PEP (IC50 μM)) was 0.1 to 1 µM each time.

For `CCc1ncc(Nc2nc(C)cc(NC)n2)cc1OCCCN1CCCC1` [Compound 515], the IC50 on human EHMT2 913-1193 (setting [3]) and at EHMT1 (read-out: EHMT1 PEP (IC50 μM)) was 1 to 10 µM in each case.

Regarding `COc1cnc(Nc2nccc3[nH]ccc23)cc1OCCCN1CC2CC2C1` (centres unmarked) [Compound 507], the IC50 on human EHMT2 913-1193 (setting [3]) and at EHMT1 (read-out: EHMT1 PEP (IC50 μM)) was under 0.1 µM in each case.

Take `CNc1nc(C2CCOCC2)c2cc(OC)c(OCCCN3CCCC3)cc2n1` [Compound 521]: the IC50 at human EHMT2 913-1193 (setting [3]) and at EHMT1 (read-out: EHMT1 PEP (IC50 μM)) was 1 to 10 µM in each case.

For `CNc1cc(C)nc(Nc2ccc(OC)c(OC[C@H](O)CN(C)C)c2)n1` [Compound 1112], the figures for the IC50 at human EHMT2 913-1193 (setting [1]) and at EHMT1 (setting [2]) were 0.1 to 1 µM and under 0.1 µM, respectively.

As for `COc1cc2c(C3CCN(C)CC3)cc(C)nc2cc1OCCCN1CCCC1` [Compound 536], the IC50 at human EHMT2 913-1193 (setting [3]) and on EHMT1 (read-out: EHMT1 PEP (IC50 μM)) was under 0.1 µM each time.
